{
  "source": "paper PMC7570662",
  "about": "“In Vivo Pharmacokinetic Analysis Utilizing Non-Targeted and Targeted Mass Spectrometry and In Vitro Assay against Transient Receptor Potential Channels of Maobushisaishinto and Its Constituent Asiasari Radix” (Molecules, 2020)",
  "key": {"human TRPA1": {"target": "T1, human TRPA1 (Homo sapiens, UniProt O75762)", "T1 construct": "Each full-length human TRPA1, TRPV1, TRPV4, and TRPM8 coding regions were introduced into a pcDNA4/TO vector; expressed in transfected cells; host or cells: T-REx-293 cells (tetracycline-induced, pcDNA4/TO vector)", "T1 sequence (O75762 whole entry)": "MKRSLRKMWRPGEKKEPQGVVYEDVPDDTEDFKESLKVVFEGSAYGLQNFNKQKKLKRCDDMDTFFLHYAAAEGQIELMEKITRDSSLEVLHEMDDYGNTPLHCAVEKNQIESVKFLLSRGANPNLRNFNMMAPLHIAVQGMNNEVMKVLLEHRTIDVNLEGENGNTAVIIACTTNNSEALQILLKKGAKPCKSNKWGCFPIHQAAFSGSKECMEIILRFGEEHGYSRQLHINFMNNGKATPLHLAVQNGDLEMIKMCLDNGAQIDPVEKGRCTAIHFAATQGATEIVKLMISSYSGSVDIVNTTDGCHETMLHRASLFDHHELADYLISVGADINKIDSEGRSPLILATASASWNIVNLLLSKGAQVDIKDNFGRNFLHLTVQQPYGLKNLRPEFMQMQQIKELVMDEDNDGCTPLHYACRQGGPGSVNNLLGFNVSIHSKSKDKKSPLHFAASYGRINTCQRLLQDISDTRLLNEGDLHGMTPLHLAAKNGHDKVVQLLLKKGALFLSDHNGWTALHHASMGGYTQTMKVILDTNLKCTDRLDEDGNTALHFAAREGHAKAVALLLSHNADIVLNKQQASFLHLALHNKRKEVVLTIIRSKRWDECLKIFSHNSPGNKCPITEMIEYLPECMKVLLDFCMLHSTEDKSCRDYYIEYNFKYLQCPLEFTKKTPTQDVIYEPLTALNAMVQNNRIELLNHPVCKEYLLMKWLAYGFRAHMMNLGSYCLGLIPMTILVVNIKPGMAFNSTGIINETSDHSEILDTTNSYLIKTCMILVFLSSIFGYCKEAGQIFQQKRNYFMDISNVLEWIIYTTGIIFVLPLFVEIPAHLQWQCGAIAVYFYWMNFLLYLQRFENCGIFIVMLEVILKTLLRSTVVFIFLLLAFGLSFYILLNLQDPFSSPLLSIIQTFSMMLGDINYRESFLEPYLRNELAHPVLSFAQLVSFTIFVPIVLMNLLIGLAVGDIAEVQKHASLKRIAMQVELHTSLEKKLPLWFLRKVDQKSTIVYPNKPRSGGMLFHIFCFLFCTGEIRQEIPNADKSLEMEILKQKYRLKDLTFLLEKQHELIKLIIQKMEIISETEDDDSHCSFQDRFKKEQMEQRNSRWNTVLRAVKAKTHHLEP", "assay": "Ca2+ influx assay in TRPA1-expressing T-REx-293 cells", "assay_type": "cell-based", "conditions": "for activation at 10 µM: T-REx-293, read-out: % of Activation Compared to Positive Control against Each Subfamily of TRP Channel TRPA1; for EC50: dose-response test, Ca2+ influx, read-out: EC50 Value against TRPA1", "protocol": "(§1) Each full-length human TRPA1, TRPV1, TRPV4, and TRPM8 coding regions were introduced into a pcDNA4/TO vector (Thermo Fisher Scientific, Waltham, MA, USA) and transfected into T-REx-293 cells (Thermo Fisher Scientific) to obtain stable cell lines expressing human TRPA1, TRPV1, TRPV4, and TRPM8. Cells were cultured in DMEM with 10% FBS, 4 mmol/L L-glutamine, and penicillin/streptomycin.\n(§2) Cells were suspended in medium with 1 µg/mL tetracycline and seeded in poly-D-lysine coated 96-well plate at 2.5 × 10^4 cells/well. After overnight culture, the cells were used for Ca^2+ influx assay.\n(§3) The Ca^2+ influx assay was performed using a FLIPR Calcium 5 Assay Kit (Molecular Devices, Sunnyvale, CA, USA) according to previously reported methods with minor modifications. In brief, cells were incubated with 80 µL Ca^2+-chelating dye dissolved in assay buffer at pH 7.4 (Hanks’ Balanced Salt Solution containing 20 mmol/L of N-2-hydroxyethylpiperazine-N’-2-ethanesulfonic acid) at room temperature for 30 min. The plates were assayed using a FlexStation 3 Microplate Reader (Molecular Devices). The fluorescence intensity was traced entirely for 80 s. The baseline of fluorescence was measured for 20 s before adding 20 µL of test compound (final concentration, 10 µmol/L). The response was expressed as percentage activation using the relative fluorescence units (RFU) (% activation = 100 × ((RFUmax − RFUbaseline)/RFUbaseline) − 100). Furthermore, the activities of each test compound against several subfamilies of TRP channels were represented as the relative enhancement of Ca^2+ influx of each positive control, indicated as follows: 20 µmol/L of allyl isothiocyanate (an agonist of TRPA1), 2 µmol/L of capsaicin (an agonist of TRPV1), 4 µmol/L of GSK1016790A (an agonist of TRPV4), and 20 µmol/L of icilin (an agonist of TRPM8). The dose–response curve was fitted to the sigmoidal dose-response equation (top, the max response of each compound), and EC50 values were calculated using GraphPad Prism 7 software (GraphPad, San Diego, CA, USA)."}, "[1]": {"system": "LPS-induced NO production in RAW264.7 cells", "assay": "LPS-induced NO production in RAW264.7 cells (Griess method)", "assay_type": "cell-based, mouse", "conditions": "LPS 3 µg/mL, 24 h, mean of two experiments", "protocol": "The experimental methods and results about the measurement of extracellular NO production are described as following.\nMouse macrophage-like RAW264. 7 cells were obtained from the European Collection of Authenticated Cell Cultures and cultured in Dulbecco’s Modified Eagle Medium (DMEM) containing 10% fetal bovine serum (FBS). The cells were maintained at 37 °C in a humidified incubator with an […]\nRAW264. 7 cells were seeded in 48-well plates (6.0 × 10^4 cells per well) and incubated overnight, and then, 1 or 10 µmol/L of test compounds and 3 µg/mL of lipopolysaccharide (LPS; from Escherichia coli 0111: B4, L3024; Sigma-Aldrich) were added into the medium. Following 24 h after addition, 100 µL of conditioned media were collected and mixed with equal volume of Griess reagent (G4410; Sigma-Aldrich), and the mixture was incubated at room temperature for 15 min. Finally, absorbance was determined at 540 nm wave. Nitrite concentrations were quantified using a calibration curve obtained from a dilute solution of NaNO2. […]\nproduction at concentrations of 1 or 10 µmol/L.\nTable S3. Effect of Asiasari Radix ingredients on LPS -induced NO production.\nTest Compound (% of LPS Control)\nAmide A: (2E,4E,8Z,10E)-N-isobutyl-2,4,8,10-dodecatetraenamide. Each test compound (1 or 10 µmol/L) and lipopolysaccharide (LPS, 3 µg/mL) were added into a culture of RAW264. 7 cells. Following 24 h of substance addition, nitric oxide (NO) released in the cell medium was measured by Griess method. Percentage of NO production was calculated using the following equation: (nitrite concentration after treatment with test compound and LPS/nitrite concentration after treatment with LPS only) × 100. Each value represents the mean of two independent experiments"}, "human TRPV1": {"target": "T2, human TRPV1 (Homo sapiens, UniProt Q8NER1)", "T2 construct": "Each full-length human TRPA1, TRPV1, TRPV4, and TRPM8 coding regions were introduced into a pcDNA4/TO vector; expressed in transfected cells; host or cells: T-REx-293 cells (tetracycline-induced, pcDNA4/TO vector)", "T2 sequence (Q8NER1 whole entry)": "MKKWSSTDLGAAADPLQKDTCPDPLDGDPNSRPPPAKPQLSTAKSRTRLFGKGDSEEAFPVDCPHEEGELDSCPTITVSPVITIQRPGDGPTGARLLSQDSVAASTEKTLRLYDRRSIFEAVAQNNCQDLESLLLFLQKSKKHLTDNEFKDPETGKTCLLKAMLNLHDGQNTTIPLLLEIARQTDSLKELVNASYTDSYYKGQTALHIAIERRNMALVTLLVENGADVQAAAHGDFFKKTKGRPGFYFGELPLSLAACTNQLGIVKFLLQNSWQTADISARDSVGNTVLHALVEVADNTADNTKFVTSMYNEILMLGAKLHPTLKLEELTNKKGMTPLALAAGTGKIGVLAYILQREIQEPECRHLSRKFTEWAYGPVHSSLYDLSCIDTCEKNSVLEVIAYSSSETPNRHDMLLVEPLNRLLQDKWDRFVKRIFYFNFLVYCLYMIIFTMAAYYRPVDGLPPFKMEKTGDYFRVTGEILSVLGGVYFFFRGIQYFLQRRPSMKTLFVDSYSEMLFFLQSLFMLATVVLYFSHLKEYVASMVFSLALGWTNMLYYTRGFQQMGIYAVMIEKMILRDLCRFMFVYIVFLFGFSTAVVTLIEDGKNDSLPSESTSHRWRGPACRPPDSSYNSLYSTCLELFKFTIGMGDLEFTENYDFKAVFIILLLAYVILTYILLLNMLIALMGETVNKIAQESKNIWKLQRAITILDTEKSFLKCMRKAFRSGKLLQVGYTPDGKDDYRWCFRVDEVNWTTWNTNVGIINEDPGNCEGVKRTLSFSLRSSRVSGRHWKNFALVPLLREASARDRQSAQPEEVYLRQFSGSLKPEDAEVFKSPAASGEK", "assay": "Ca2+ influx assay in TRPV1-expressing T-REx-293 cells", "assay_type": "cell-based", "conditions": "10 µmol/L test compound, relative to 2 µmol/L capsaicin; for activation at 10 µM: T-REx-293, read-out: % of Activation Compared to Positive Control against Each Subfamily of TRP Channel TRPV1", "protocol": "as §1, §2, §3"}, "human TRPV4": {"target": "T3, human TRPV4 (Homo sapiens, UniProt Q9HBA0)", "T3 construct": "Each full-length human TRPA1, TRPV1, TRPV4, and TRPM8 coding regions were introduced into a pcDNA4/TO vector; expressed in transfected cells; host or cells: T-REx-293 cells (tetracycline-induced, pcDNA4/TO vector)", "T3 sequence (Q9HBA0 whole entry)": "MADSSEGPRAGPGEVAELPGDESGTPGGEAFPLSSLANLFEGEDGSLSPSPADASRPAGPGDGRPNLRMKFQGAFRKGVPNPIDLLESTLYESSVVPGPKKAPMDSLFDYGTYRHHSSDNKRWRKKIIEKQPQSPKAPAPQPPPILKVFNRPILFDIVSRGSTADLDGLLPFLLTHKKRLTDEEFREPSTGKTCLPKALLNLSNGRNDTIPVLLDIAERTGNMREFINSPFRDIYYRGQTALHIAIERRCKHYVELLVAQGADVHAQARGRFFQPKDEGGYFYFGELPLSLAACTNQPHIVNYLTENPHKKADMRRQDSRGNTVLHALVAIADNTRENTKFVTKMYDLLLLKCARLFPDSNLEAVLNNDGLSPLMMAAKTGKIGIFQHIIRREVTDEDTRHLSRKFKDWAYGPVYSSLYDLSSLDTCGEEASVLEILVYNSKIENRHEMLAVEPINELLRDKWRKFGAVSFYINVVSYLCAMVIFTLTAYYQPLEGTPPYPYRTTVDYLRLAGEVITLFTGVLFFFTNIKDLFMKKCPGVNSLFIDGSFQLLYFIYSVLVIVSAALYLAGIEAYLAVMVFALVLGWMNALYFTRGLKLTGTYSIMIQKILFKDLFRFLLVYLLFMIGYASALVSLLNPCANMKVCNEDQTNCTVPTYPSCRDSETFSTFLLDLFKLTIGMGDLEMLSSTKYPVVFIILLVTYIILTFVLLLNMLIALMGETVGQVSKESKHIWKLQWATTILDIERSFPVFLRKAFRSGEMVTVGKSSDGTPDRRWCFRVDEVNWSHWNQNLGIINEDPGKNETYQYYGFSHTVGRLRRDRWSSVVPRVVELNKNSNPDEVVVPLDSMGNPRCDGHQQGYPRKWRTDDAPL", "assay": "Ca2+ influx assay in TRPV4-expressing T-REx-293 cells", "assay_type": "cell-based", "conditions": "10 µmol/L test compound, relative to 4 µmol/L GSK1016790A; for activation at 10 µM: T-REx-293, read-out: % of Activation Compared to Positive Control against Each Subfamily of TRP Channel TRPV4", "protocol": "as §1, §2, §3"}, "human TRPM8": {"target": "T4, human TRPM8 (Homo sapiens, UniProt Q7Z2W7)", "T4 construct": "Each full-length human TRPA1, TRPV1, TRPV4, and TRPM8 coding regions were introduced into a pcDNA4/TO vector; expressed in transfected cells; host or cells: T-REx-293 cells (tetracycline-induced, pcDNA4/TO vector)", "T4 sequence (Q7Z2W7 whole entry)": "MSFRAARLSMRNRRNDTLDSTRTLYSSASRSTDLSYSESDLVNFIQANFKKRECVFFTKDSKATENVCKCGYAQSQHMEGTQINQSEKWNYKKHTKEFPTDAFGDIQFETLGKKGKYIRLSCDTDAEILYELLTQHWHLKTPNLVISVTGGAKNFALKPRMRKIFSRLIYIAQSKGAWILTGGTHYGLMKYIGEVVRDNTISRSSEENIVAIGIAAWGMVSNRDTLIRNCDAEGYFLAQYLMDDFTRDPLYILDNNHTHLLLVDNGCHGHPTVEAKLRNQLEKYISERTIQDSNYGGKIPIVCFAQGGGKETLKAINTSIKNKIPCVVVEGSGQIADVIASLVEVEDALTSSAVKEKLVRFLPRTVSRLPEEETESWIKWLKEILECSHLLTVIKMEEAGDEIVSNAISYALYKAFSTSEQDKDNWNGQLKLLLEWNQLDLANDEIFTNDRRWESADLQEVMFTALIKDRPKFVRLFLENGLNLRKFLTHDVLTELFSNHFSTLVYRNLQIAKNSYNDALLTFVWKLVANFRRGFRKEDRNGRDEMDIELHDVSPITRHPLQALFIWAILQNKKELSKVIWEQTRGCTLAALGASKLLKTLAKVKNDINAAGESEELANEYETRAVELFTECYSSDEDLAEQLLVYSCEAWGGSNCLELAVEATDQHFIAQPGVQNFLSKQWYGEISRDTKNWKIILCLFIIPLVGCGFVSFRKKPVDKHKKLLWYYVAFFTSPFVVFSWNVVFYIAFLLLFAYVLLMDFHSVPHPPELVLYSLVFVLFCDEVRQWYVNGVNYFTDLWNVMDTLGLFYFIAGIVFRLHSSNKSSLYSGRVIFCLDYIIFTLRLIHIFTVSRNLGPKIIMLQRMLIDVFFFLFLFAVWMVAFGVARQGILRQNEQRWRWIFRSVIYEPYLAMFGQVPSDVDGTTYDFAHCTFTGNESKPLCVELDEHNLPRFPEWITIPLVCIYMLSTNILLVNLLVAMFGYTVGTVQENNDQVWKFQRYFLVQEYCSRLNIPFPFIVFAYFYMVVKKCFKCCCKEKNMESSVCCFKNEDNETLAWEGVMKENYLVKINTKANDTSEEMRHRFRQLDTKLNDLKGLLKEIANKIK", "assay": "Ca2+ influx assay in TRPM8-expressing T-REx-293 cells", "assay_type": "cell-based", "conditions": "10 µmol/L test compound, relative to 20 µmol/L icilin; for activation at 10 µM: T-REx-293, read-out: % of Activation Compared to Positive Control against Each Subfamily of TRP Channel TRPM8", "protocol": "as §1, §2, §3"}, "[2]": {"conditions": "10 µmol/L test compound, relative to 20 µmol/L allyl isothiocyanate"}},
  "data": [
    {"smiles": "C/C=C/C=C\\CC/C=C/C=C/C(=O)NCC(C)C", "note": "[Amide A, (2E,4E,8Z,10E)-N-isobutyl-2,4,8,10-dodecatetraenamide]", "values": [
      {"measurement": "activation at 10 µM", "setting": "human TRPA1; [2]", "result": 96, "unit": "%"},
      {"measurement": "EC50", "setting": "human TRPA1", "result": 470, "unit": "nM"},
      {"measurement": "NO Production (% of LPS Control)", "setting": "[1]; 1 µmol/L test compound", "result": "92 % of LPS Control"},
      {"measurement": "NO Production (% of LPS Control)", "setting": "[1]; 10 µmol/L test compound", "result": "82 % of LPS Control"},
      {"measurement": "activation at 10 µM", "setting": "human TRPV1", "result": 0.7, "unit": "%"},
      {"measurement": "activation at 10 µM", "setting": "human TRPV4", "result": 2.7, "unit": "%"},
      {"measurement": "activation at 10 µM", "setting": "human TRPM8", "result": 6.1, "unit": "%"}
    ]},
    {"smiles": "c1cc2c(cc1[C@H]1OC[C@H]3[C@@H]1CO[C@H]3c1ccc3c(c1)OCO3)OCO2", "note": "[Asarinin, (−)-Asarinin]", "values": [
      {"measurement": "activation at 10 µM", "setting": "human TRPA1; [2]", "result": 106, "unit": "%"},
      {"measurement": "EC50", "setting": "human TRPA1", "result": 3100, "unit": "nM"},
      {"measurement": "NO Production (% of LPS Control)", "setting": "[1]; 1 µmol/L test compound", "result": "99 % of LPS Control"},
      {"measurement": "NO Production (% of LPS Control)", "setting": "[1]; 10 µmol/L test compound", "result": "97 % of LPS Control"},
      {"measurement": "activation at 10 µM", "setting": "human TRPV1", "result": -0.4, "unit": "%"},
      {"measurement": "activation at 10 µM", "setting": "human TRPV4", "result": -0.1, "unit": "%"},
      {"measurement": "activation at 10 µM", "setting": "human TRPM8", "result": 1.4, "unit": "%"}
    ]},
    {"smiles": "CCC(=O)c1cc2c(cc1OC)OCO2", "note": "[Methyl kakuol]", "values": [
      {"measurement": "% of Activation Compared to Positive Control against Each Subfamily of TRP Channel TRPA1", "setting": "human TRPA1; [2]", "result": 49, "unit": "%"},
      {"measurement": "EC50", "setting": "human TRPA1", "result": 270, "unit": "nM"},
      {"measurement": "NO Production (% of LPS Control)", "setting": "[1]; 1 µmol/L test compound", "result": "102 % of LPS Control"},
      {"measurement": "NO Production (% of LPS Control)", "setting": "[1]; 10 µmol/L test compound", "result": "93 % of LPS Control"},
      {"measurement": "% of Activation Compared to Positive Control against Each Subfamily of TRP Channel TRPV1", "setting": "human TRPV1", "result": 0.1, "unit": "%"},
      {"measurement": "% of Activation Compared to Positive Control against Each Subfamily of TRP Channel TRPV4", "setting": "human TRPV4", "result": 0.9, "unit": "%"},
      {"measurement": "% of Activation Compared to Positive Control against Each Subfamily of TRP Channel TRPM8", "setting": "human TRPM8", "result": 2.8, "unit": "%"}
    ]},
    {"smiles": "c1cc2c(cc1[C@H]1OC[C@H]3[C@@H]1CO[C@@H]3c1ccc3c(c1)OCO3)OCO2", "note": "[Sesamin]", "values": [
      {"measurement": "activation at 10 µM", "setting": "human TRPA1; [2]", "result": 106, "unit": "%"},
      {"measurement": "EC50", "setting": "human TRPA1", "result": 2300, "unit": "nM"},
      {"measurement": "NO Production (% of LPS Control)", "setting": "[1]; 1 µmol/L test compound", "result": "96 % of LPS Control"},
      {"measurement": "NO Production (% of LPS Control)", "setting": "[1]; 10 µmol/L test compound", "result": "78 % of LPS Control"},
      {"measurement": "activation at 10 µM", "setting": "human TRPV1", "result": -0.1, "unit": "%"},
      {"measurement": "activation at 10 µM", "setting": "human TRPV4", "result": -0.1, "unit": "%"},
      {"measurement": "activation at 10 µM", "setting": "human TRPM8", "result": -0.8, "unit": "%"}
    ]}
  ]
}
